pIC50: −log10 of the molar value.
Key:
HDAC1 = molecular target: T1, HDAC1 (Homo sapiens, UniProt Q13547); experiment: HDAC enzyme activity inhibition (in vitro), HDAC1 Fluorimetric Drug Discovery Assay Kit; format: biochemical; conditions: samples at 100, 1000 and 10000 nM; 37° C. 60 minutes; fluorescence Ex 390, Em 460; read-out: HDAC1 IC50
T1 construct: purchased Enzolifesciences BML-AK511
Summary of the method: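 Each sample reacted with enzyme for 60 min at 37° C before a 30-min developer step at the same temperature. HDAC1 doses spanned 100 to 10000 nM. Fluorescent signal was read at Ex 390/Em 460.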

HDAC6 human recombinant = molecular target: T2, HDAC6 human recombinant (Homo sapiens, UniProt Q9UBN7); experiment: HDAC enzyme activity inhibition (in vitro), HDAC6 assay; format: biochemical; conditions: samples at 0.1, 1, 10, 100 and 1000 nM; 37° C. 60 minutes; fluorescence Ex 390, Em 460; read-out: HDAC6 IC50
T2 construct: purchased Calbiochem 382180
T2 sequence (Q9UBN7 1-1215): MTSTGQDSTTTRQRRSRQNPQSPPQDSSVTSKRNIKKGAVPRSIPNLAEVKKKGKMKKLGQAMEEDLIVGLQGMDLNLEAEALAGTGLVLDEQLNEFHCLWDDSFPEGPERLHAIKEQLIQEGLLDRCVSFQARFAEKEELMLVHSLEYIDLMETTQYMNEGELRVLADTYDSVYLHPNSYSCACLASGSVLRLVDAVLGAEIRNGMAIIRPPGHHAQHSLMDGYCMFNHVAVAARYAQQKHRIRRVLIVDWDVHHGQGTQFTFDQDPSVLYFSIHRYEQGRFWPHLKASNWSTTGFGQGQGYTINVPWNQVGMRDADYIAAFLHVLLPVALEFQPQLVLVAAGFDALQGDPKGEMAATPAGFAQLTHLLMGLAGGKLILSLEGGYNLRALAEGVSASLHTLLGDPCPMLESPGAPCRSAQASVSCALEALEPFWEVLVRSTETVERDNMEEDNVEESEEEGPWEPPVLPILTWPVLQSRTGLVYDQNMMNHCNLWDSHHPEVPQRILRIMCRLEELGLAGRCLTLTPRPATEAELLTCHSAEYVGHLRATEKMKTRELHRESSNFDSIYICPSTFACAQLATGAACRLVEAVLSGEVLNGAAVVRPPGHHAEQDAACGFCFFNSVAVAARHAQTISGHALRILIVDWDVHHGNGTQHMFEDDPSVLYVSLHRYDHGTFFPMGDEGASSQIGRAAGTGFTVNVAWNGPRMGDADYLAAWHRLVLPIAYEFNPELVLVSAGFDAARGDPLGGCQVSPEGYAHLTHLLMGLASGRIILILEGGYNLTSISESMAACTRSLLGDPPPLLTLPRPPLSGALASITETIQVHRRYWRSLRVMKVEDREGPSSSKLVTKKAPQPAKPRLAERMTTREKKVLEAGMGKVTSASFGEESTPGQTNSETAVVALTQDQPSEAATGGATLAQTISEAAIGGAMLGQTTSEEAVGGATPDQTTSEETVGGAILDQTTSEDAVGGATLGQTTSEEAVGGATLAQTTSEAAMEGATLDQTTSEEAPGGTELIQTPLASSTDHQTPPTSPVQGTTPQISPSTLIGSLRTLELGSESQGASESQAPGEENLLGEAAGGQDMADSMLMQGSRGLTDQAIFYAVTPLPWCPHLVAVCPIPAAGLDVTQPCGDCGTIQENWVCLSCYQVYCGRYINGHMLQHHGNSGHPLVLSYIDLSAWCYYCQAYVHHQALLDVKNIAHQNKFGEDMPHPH
Summary of the method: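 Fluorescence (Ex 390, Em 460) read after a 37° C, 60 min enzyme reaction and a further 30 min developer step at 37° C. Uses recombinant human HDAC6; HDAC1 arm dosed at 100, 1000, 10000 nM.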

T1 sequence (Q13547 whole entry): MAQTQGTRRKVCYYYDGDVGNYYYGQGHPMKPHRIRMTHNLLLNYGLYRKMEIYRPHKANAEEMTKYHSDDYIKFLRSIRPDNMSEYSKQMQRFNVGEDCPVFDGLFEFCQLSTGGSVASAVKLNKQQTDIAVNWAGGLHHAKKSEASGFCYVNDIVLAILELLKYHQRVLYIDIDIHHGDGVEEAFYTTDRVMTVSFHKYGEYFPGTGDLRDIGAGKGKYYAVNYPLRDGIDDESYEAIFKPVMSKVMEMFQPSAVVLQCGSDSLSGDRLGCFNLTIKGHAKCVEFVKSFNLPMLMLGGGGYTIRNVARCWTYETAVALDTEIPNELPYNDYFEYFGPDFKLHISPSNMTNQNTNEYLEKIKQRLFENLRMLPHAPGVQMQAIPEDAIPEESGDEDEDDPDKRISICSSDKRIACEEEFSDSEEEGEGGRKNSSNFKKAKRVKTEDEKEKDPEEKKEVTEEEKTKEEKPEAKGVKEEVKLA

Row | Structure (SMILES) | pIC50 (HDAC1) | pIC50 (HDAC6 human recombinant)
1 | O=c1oc2cc(C3CCN(C4COC4)CC3)c(F)cc2n1Cc1ccc(-c2nnc(C(F)F)o2)cn1 [Compound 336, 3-((5-(5-(difluoromethyl)-1,3,4-oxadiazole-2-yl)pyridine-2-yl)methyl)-5-fluoro-6-(1-(oxetan-3-yl)piperidine-4-yl)benzo[d]oxazole-2(3H)-one] | < 5.00 | 7.36
2 | CC(C)(C)OC(=O)N1CCN(c2ncc(-c3cc4oc(=O)n(Cc5ccc(-c6nnc(C(F)F)o6)cn5)c4cc3F)cn2)CC1 [Compound 337, tert-butyl 4-(5-(3-((5-(5-(difluoromethyl)-1,3,4-oxadiazole-2-yl)pyridine-2-yl)methyl)-5-fluoro-2-oxo-2,3-dihydrobenzo[d]oxazole-6-yl)pyrimidine-2-yl)piperazine-1-carboxylate] | < 5.00 | 6.17
3 | CN1CCN(c2ncc(-c3cc4oc(=O)n(Cc5ccc(-c6nnc(C(F)F)o6)cn5)c4cc3F)cn2)CC1 [Compound 338, 3-((5-(5-(difluoromethyl)-1,3,4-oxadiazole-2-yl)pyridine-2-yl)methyl)-5-fluoro-6-(2-(4-methylpiperazine-1-yl)pyrimidine-5-yl)benzo[d]oxazole-2(3H)-one] | < 5.00 | 7.33
4 | O=c1oc2cc(-c3cnc(N4CCN(C5COC5)CC4)nc3)c(F)cc2n1Cc1ccc(-c2nnc(C(F)F)o2)cn1 [Compound 339, 3-((5-(5-(difluoromethyl)-1,3,4-oxadiazole-2-yl)pyridine-2-yl)methyl)-5-fluoro-6-(2-(4-(oxetan-3-yl)piperazine-1-yl)pyrimidine-5-yl)benzo[d]oxazole-2(3H)-one] | < 5.00 | 7.28
5 | Cn1c(=O)n(Cc2ccc(-c3nnc(C(F)F)o3)cc2F)c2cc(F)c(-c3ccc(CN4CCOCC4)nc3)cc21 [Compound 340, 1-(4-(5-(difluoromethyl)-1,3,4-oxadiazole-2-yl)-2-fluorobenzyl)-6-fluoro-3-methyl-5-(6-(morpholinomethyl)pyridine-3-yl)-1,3-dihydro-2H-benzo[d]imidazole-2-one] | < 5.00 | 7.19
6 | Cn1c(=O)n(Cc2ccc(-c3nnc(C(F)F)o3)cn2)c2cc(F)c(-c3cnc(N4CCN(C(=O)OC(C)(C)C)CC4)nc3)cc21 [Compound 341, tert-butyl 4-(5-(1-((5-(5-(difluoromethyl)-1,3,4-oxadiazole-2-yl)pyridine-2-yl)methyl)-6-fluoro-3-methyl-2-oxo-2,3-dihydro-1H-benzo[d]imidazole-5-yl)pyrimidine-2-yl)piperazine-1-carboxylate] | < 5.00 | 6.68
7 | CN1CCN(c2ncc(-c3cc4c(cc3F)n(Cc3ccc(-c5nnc(C(F)F)o5)cn3)c(=O)n4C)cn2)CC1 [Compound 342, 1-((5-(5-(difluoromethyl)-1,3,4-oxadiazole-2-yl)pyridine-2-yl)methyl)-6-fluoro-3-methy 1-5-(2-(4-methylpiperazine-1-yl)pyrimidine-5-yl)-1,3-dihydro-2H-benzo[d]imidazole-2-one] | < 5.00 | 7.80
8 | Cn1c(=O)n(Cc2ccc(-c3nnc(C(F)F)o3)cn2)c2cc(F)c(-c3cnc(N4CCN(C5COC5)CC4)nc3)cc21 [Compound 343, 1-((5-(5-(difluoromethyl)-1,3,4-oxadiazole-2-yl)pyridine-2-yl)methyl)-6-fluoro-3-methy 1-5-(2-(4-(oxetan-3-yl)piperazine-1-yl)pyrimidine-5-yl)-1,3-dihydro-2H-benzo[d]imidazole-2-one] | < 5.00 | 7.72
9 | CC(C)(C)OC(=O)N1CCN(c2ccc(-c3cc4oc(=O)n(Cc5ccc(-c6nnc(C(F)F)o6)cn5)c4cc3F)cn2)CC1 [Compound 344, tert-butyl 4-(5-(3-((5-(5-(difluoromethyl)-1,3,4-oxadiazole-2-yl)pyridine-2-yl)methyl)-5-fluoro-2-oxo-2,3-dihydrobenzo[d]oxazole-6-yl)pyridine-2-yl)piperazine-1-carboxylate] | < 5.00 | 6.17

Continued, values first:

Row | pIC50 (HDAC1) | pIC50 (HDAC6 human recombinant) | Structure (SMILES)
10 | < 5.00 | 7.24 | CN(C)CCn1c(=O)n(Cc2ccc(-c3nnc(C(F)F)o3)cn2)c2cc(F)c(-c3ccncc3)cc21 [Compound 327, 1-((5-(5-(difluoromethyl)-1,3,4-oxadiazole-2-yl)pyridine-2-yl)methyl)-3-(2-(dimethylamino)ethyl)-6-fluoro-5-(pyridine-4-yl)-1,3-dihydro-2H-benzo[d]imidazole-2-one]
11 | < 5.00 | 7.07 | CN1CCN(c2cc3c(cc2F)n(Cc2ccc(-c4nnc(C(F)F)o4)cn2)c(=O)n3-c2cccnc2)CC1 [Compound 328, 1-((5-(5-(difluoromethyl)-1,3,4-oxadiazole-2-yl)pyridine-2-yl)methyl)-6-fluoro-5-(4-methylpiperazine-1-yl)-3-(pyridine-3-yl)-1,3-dihydro-2H-benzo[d]imidazole-2-one]
12 | < 5.00 | 6.90 | O=c1n(Cc2ccc(-c3nnc(C(F)F)o3)cn2)c2cc(F)c(N3CCN(C4COC4)CC3)cc2n1-c1cccnc1 [Compound 329, 1-((5-(5-(difluoromethyl)-1,3,4-oxadiazole-2-yl)pyridine-2-yl)methyl)-6-fluoro-5-(4-(oxetan-3-yl)piperazine-1-yl)-3-(pyridine-3-yl)-1,3-dihydro-2H-benzo[d]imidazole-2-one]
13 | < 5.00 | 7.66 | Cn1c(=O)n(Cc2ccc(-c3nnc(C(F)F)o3)cn2)c2cc(F)c(-c3ccc(CN4CCOCC4)nc3)cc21 [Compound 330, 1-((5-(5-(difluoromethyl)-1,3,4-oxadiazole-2-yl)pyridine-2-yl)methyl)-6-fluoro-3-methy 1-5-(6-(morpholinomethyl)pyridine-3-yl)-1,3-dihydro-2H-benzo[d]imidazole-2-one]
14 | < 5.00 | 7.21 | CN1CCC(c2ccc3c(c2)sc(=O)n3Cc2ccc(-c3nnc(C(F)F)o3)cn2)CC1 [Compound 331, 3-((5-(5-(difluoromethyl)-1,3,4-oxadiazole-2-yl)pyridine-2-yl)methyl)-6-(1-methylpiperidine-4-yl)benzo[d]thiazole-2(3H)-one]
15 | < 5.00 | 7.37 | O=c1oc2cc(-c3ccc(CN4CCOCC4)nc3)c(F)cc2n1Cc1ccc(-c2nnc(C(F)F)o2)cn1 [Compound 332, 3-((5-(5-(difluoromethyl)-1,3,4-oxadiazole-2-yl)pyridine-2-yl)methyl)-5-fluoro-6-(6-(morpholinomethyl)pyridine-3-yl)benzo[d]oxazole-2(3H)-one]
16 | < 5.00 | 7.42 | O=c1sc2cc(-c3ccc(CN4CCOCC4)nc3)ccc2n1Cc1ccc(-c2nnc(C(F)F)o2)cn1 [Compound 333, 3-((5-(5-(difluoromethyl)-1,3,4-oxadiazole-2-yl)pyridine-2-yl)methyl)-6-(6-(morpholinomethyl)pyridine-3-yl)benzo[d]thiazole-2(3H)-one]
17 | < 5.00 | 7.19 | CN1CCC(c2cc3oc(=O)n(Cc4ccc(-c5nnc(C(F)F)o5)cn4)c3cc2F)CC1 [Compound 334, 3-((5-(5-(difluoromethyl)-1,3,4-oxadiazole-2-yl)pyridine-2-yl)methyl)-5-fluoro-6-(1-methylpiperidine-4-yl)benzo[d]oxazole-2(3H)-one]
18 | < 5.00 | 7.12 | CC(C)N1CCC(c2cc3oc(=O)n(Cc4ccc(-c5nnc(C(F)F)o5)cn4)c3cc2F)CC1 [Compound 335, 3-((5-(5-(difluoromethyl)-1,3,4-oxadiazole-2-yl)pyridine-2-yl)methyl)-5-fluoro-6-(1-isopropylpiperidine-4-yl)benzo[d]oxazole-2(3H)-one]

— US20230092890A1, “1, 3, 4-Oxadiazole derivative compounds as histone deacetylase 6 inhibitor, and the pharmaceutical composition comprising the same” (Chong Kun Dang Pharmaceutical Corp., priority 2019, published 2023)
